Target: T1, CdgL (c-di-GMP receptor interacting with LysR; YajQ homologue, Le2538) (Lysobacter enzymogenes, UniProt A0A0S2DCE3)
T1 sequence (A0A0S2DCE3 1-160): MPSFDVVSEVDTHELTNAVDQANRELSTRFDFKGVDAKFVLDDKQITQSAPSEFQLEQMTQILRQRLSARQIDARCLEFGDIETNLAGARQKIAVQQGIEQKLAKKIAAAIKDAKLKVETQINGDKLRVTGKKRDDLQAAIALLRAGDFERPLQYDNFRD
Test: microscale thermophoresis
Format: binding

- Kd: 14.6 µM
Compound: Nc1nc2c(ncn2[C@@H]2O[C@@H]3CO[P@](=O)(O)O[C@H]4[C@@H](O)[C@H](n5cnc6c(=O)[nH]c(N)nc65)O[C@@H]4CO[P@](=O)(O)O[C@H]3[C@H]2O)c(=O)[nH]1 [c-di-GMP]

Source: publication PMC6988422 (Molecular Plant Pathology, 2019)
